This note sets out measurements from patent EP4745137A1 (Gluetacs Therapeutics (Shanghai) Co., Ltd., priority 2023, dated 2025).

The target in one assay is T1, IKZF3 (Homo sapiens, UniProt Q96SW2+Q9UKT9).
T1 construct: endogenous in cells; host or cells: hPBMCs (Milecell Biotechnologies)
The assay is described as follows: Western-blot assay of substrate protein degradation in hPBMCs, IKZF3. It counts as cell-based. To be noted: 24 hours of compound treatment, compounds tested at 50 nM and 500 nM (concentration of the table not stated).

Another assay concerns TMD8. The assay is described as follows: Tumor cell proliferation inhibition (CellTiter-Meiluncell Luminescent Cell Viability Assay), TMD8. To be noted: Homo sapiens, TMD8, 96 h, read-out: inhibitory activity (IC50, nM) against tumor cells proliferation, TMD8.
The next assay addresses T2, CK1α (Homo sapiens, UniProt P48729+Q96SW2).
T2 construct: endogenous in cells; host or cells: hPBMCs (Milecell Biotechnologies)
The assay is described as follows: Western-blot assay of substrate protein degradation in hPBMCs, CK1α. The format is cell-based. To be noted: 24 hours of compound treatment, compounds tested at 50 nM and 500 nM (concentration of the table not stated).

The target in another assay is T3, GSPT1 (Homo sapiens, UniProt P15170+Q96SW2).
T3 construct: endogenous in cells; host or cells: hPBMCs (Milecell Biotechnologies)
T3 sequence (P15170 whole entry): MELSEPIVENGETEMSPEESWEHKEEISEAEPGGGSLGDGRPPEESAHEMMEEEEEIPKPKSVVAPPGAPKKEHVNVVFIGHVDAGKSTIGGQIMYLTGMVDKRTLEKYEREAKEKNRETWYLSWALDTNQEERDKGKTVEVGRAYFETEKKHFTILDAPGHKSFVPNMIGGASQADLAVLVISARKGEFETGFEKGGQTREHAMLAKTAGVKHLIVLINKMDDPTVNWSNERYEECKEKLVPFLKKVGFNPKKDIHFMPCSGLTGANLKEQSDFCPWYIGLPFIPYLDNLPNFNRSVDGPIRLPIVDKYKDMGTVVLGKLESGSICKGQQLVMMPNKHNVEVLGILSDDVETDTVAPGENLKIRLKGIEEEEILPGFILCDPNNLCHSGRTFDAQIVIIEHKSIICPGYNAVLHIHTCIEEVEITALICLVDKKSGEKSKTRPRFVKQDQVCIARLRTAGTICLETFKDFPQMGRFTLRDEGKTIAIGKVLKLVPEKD
T3 sequence (Q96SW2 whole entry): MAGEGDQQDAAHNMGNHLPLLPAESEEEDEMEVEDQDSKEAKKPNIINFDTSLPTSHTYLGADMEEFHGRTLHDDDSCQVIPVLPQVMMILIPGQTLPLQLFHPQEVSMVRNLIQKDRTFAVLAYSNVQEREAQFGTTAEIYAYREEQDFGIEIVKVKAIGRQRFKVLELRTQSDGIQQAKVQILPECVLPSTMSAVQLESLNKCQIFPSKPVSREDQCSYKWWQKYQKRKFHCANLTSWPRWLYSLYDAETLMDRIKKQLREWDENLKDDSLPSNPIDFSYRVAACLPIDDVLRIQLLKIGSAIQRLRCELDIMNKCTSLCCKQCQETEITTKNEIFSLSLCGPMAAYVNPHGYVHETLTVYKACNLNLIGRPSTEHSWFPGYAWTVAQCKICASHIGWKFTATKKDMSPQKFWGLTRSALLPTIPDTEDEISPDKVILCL
T3 sequence (Q16531 whole entry partner): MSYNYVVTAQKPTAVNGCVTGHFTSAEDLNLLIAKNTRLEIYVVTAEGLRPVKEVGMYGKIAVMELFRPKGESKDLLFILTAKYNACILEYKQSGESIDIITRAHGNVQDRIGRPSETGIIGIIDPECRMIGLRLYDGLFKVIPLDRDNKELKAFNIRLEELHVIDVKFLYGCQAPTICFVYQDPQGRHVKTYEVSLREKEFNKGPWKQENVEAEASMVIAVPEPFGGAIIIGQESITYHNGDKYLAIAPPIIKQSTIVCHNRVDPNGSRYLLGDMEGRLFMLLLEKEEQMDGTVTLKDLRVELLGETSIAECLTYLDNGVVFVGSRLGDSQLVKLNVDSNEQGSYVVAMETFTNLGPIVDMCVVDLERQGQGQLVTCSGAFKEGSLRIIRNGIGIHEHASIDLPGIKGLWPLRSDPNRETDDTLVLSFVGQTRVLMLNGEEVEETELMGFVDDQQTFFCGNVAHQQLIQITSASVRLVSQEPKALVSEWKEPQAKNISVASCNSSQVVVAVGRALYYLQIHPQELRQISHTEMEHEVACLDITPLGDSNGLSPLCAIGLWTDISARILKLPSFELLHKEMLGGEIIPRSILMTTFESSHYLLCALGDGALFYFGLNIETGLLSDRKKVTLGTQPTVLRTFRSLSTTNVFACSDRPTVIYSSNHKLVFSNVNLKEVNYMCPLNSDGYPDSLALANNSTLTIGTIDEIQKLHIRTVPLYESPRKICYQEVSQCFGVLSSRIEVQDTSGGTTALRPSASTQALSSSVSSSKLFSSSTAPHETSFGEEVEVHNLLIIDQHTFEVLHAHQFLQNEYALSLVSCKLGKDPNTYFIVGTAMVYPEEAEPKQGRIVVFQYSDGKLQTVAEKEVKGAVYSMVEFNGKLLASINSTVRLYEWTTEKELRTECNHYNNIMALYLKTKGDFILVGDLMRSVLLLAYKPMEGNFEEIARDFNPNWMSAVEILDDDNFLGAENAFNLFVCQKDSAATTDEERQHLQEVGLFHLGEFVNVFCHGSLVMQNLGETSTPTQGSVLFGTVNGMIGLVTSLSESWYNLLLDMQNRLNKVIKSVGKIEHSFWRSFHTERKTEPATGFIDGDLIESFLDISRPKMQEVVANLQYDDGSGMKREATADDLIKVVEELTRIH
The assay is described as follows: Western-blot assay of substrate protein degradation in hPBMCs, GSPT1. It counts as cell-based. To be noted: 24 hours of compound treatment, compounds tested at 50 nM and 500 nM (concentration of the table not stated).

The next assay has as its target T4, IKZF2 (Homo sapiens, UniProt Q96SW2+Q9UKS7).
T4 construct: endogenous in cells; host or cells: hPBMCs (Milecell Biotechnologies)
The assay is described as follows: Western-blot assay of substrate protein degradation in hPBMCs, IKZF2. The format is cell-based. Conditions: 24 hours of compound treatment, compounds tested at 50 nM and 500 nM (concentration of the table not stated).

For assay [1], the target named is T5, human Cereblon WT GST-tagged protein (Homo sapiens, UniProt Q96SW2).
T5 construct: purchased CISBIO 64BDCRBNPEH
T5 sequence (Q96SW2 whole entry): as the sequence (Q96SW2 whole entry) above
Put plainly: CRBN-binding affinity by HTRF (CEREBLON BINDING kit). To be noted: HTRF inhibitory activity, CEREBLON BINDING kit; read-out: HTRF IC50. For orientation: Time-resolved FRET reads energy transfer from a long-lived donor to a nearby acceptor.

The target in another assay is T6, IKZF1 (Homo sapiens, UniProt Q13422+Q96SW2).
T6 construct: endogenous in cells; host or cells: hPBMCs (Milecell Biotechnologies)
T6 sequence (Q13422 whole entry): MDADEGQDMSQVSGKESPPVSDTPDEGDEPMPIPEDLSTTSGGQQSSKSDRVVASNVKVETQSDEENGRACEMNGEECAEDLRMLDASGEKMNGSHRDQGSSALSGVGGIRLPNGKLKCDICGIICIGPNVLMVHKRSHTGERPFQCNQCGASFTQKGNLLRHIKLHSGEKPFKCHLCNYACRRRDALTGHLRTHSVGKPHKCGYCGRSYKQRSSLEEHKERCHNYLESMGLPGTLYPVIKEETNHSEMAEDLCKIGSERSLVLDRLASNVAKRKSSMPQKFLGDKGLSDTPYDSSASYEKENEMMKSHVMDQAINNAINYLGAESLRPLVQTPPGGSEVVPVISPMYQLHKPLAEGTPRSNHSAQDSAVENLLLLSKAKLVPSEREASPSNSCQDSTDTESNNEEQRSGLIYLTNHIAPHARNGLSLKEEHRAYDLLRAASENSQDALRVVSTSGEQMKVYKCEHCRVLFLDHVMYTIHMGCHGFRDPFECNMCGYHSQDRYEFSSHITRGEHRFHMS
T6 sequence (Q96SW2 whole entry): as the sequence (Q96SW2 whole entry) above
T6 sequence (Q16531 whole entry partner): as the sequence (Q16531 whole entry partner) above
The assay is described as follows: Western-blot assay of substrate protein degradation in hPBMCs, IKZF1. It counts as cell-based. To be noted: 24 hours of compound treatment, compounds tested at 50 nM and 500 nM (concentration of the table not stated).

Assay [2] concerns Human breast cancer cells (MDA-MB-231). Put plainly: Tumor cell proliferation inhibition (CellTiter-Meiluncell Luminescent Cell Viability Assay), MDA-MB-231. Conditions: MDA-MB-231, 96 h, read-out: inhibitory activity (IC50, nM) against tumor cells proliferation, MDA-MB-231.
Procedure: (§1) The tumor cells used herein were cultured in a cell culture medium listed in table 2 at 37°C in an incubator with 5% CO2. Prior to experimentation, all cell lines used were correctly identified by STR profiling, and tested negative for mycoplasma contamination using a mycoplasma detection kit through routine screenings.
(§2) On the following day, the test compounds of the present disclosure were subjected to serial dilution. […] Subsequently, 0.5 µL of the test compound dilution was transferred into the 96-well plate containing the cells, with each well containing 100 µL of cell culture medium. […] Into the 96-well plate, the diluted test compounds and corresponding detection reagents were added, resulting in final test compound concentrations of 500 nM and 10 nM, respectively. The experimental procedure is described below using the diluted 2 µM test compound as an example.
(§3) After the cells were treated with the compounds of the present disclosure for a specified period (the treatment durations were shown in Table 3), the cell viability assay reagent was added to the culture medium according to the kit's instructions to determine cell viability. […] All controls were treated using the same procedure as the compounds of the present disclosure. The growth inhibition curves for the compounds of the present disclosure were plotted using Prism GraphPad software, and the IC50 values were calculated therefrom.
Another assay relates to NCI-H1975. Put plainly: Tumor cell proliferation inhibition (CellTiter-Meiluncell Luminescent Cell Viability Assay), NCI-H1975. Conditions: Homo sapiens, NCI-H1975, 96 h, read-out: inhibitory activity (IC50, nM) against tumor cells proliferation, H1975.
In assay [3] the test system is Human acute T lymphocytic leukemia cells (Molt-4). Put plainly: Tumor cell proliferation inhibition (CellTiter-Meiluncell Luminescent Cell Viability Assay), Molt-4. Conditions: MOLT-4, 96 h, read-out: inhibitory activity (IC50, nM) against tumor cells proliferation, Molt 4.
Procedure: as §1, §2, §3
In the next assay the target is T7, WEE1 (Homo sapiens, UniProt P30291+Q96SW2).
T7 construct: endogenous in cells; host or cells: hPBMCs (Milecell Biotechnologies)
The assay is described as follows: Western-blot assay of substrate protein degradation in hPBMCs, WEE1. It counts as cell-based. Conditions: 24 hours of compound treatment, compounds tested at 50 nM and 500 nM (concentration of the table not stated).

T4 sequence (Q9UKS7 whole entry): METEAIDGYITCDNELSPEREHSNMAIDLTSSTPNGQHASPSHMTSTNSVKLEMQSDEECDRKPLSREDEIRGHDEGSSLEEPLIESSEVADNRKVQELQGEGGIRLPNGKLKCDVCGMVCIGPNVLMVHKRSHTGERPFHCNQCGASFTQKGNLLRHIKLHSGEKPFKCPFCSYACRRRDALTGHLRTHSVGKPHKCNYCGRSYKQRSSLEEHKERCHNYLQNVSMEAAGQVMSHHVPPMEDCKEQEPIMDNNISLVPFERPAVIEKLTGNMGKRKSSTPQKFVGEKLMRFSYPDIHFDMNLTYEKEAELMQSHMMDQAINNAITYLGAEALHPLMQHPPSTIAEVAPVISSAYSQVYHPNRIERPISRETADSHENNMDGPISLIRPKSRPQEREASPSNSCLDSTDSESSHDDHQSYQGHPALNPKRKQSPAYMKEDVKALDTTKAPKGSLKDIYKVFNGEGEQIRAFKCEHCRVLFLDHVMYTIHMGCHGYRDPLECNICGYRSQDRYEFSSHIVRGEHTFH
T4 sequence (Q96SW2 whole entry): as the sequence (Q96SW2 whole entry) above
T4 sequence (Q16531 whole entry partner): as the sequence (Q16531 whole entry partner) above
T1 sequence (Q9UKT9 whole entry): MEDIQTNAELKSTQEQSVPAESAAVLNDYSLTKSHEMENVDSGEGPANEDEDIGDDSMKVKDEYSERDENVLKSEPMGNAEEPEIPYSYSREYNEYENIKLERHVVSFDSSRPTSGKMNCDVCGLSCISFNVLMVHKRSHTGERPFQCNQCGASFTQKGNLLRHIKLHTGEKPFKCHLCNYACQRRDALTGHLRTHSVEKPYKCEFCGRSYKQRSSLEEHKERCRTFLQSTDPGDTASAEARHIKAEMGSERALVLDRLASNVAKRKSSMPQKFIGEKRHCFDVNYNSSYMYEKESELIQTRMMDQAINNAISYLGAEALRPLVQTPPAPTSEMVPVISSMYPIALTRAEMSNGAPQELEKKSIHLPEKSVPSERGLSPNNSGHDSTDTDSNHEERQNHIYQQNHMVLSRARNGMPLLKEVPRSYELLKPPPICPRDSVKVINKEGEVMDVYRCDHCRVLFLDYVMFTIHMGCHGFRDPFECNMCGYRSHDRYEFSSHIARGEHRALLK
T1 sequence (Q96SW2 whole entry): as the sequence (Q96SW2 whole entry) above
T1 sequence (Q16531 whole entry partner): as the sequence (Q16531 whole entry partner) above
T2 sequence (P48729 whole entry): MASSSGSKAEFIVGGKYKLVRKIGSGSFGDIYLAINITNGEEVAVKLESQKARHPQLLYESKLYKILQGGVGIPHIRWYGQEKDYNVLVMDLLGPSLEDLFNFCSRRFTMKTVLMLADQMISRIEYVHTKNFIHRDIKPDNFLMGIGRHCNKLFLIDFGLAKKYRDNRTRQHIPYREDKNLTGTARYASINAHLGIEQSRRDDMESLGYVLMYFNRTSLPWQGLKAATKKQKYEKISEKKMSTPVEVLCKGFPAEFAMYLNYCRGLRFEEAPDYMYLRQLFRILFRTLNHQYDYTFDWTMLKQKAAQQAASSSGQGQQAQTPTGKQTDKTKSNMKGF
T2 sequence (Q96SW2 whole entry): as the sequence (Q96SW2 whole entry) above
T2 sequence (Q16531 whole entry partner): as the sequence (Q16531 whole entry partner) above

As for `O=C1CCC(N2Cc3cc(CN4CC=C(c5nccc(Cl)c5Cl)CC4)ccc3C2=O)C(=O)N1` (centres unmarked) [GT-04570, 3-(5-((3,4-dichloro-3',6'-dihydro-[2,4'-bipyridin]-1'(2'H)-yl)methyl)-1-oxoisoindolin-2-yl)piperidine-2,6-dione], the “IKZF3 substrate protein remaining %” value at IKZF3 is “A (0% ≤ substrate protein remaining % ≤ 80%)”. Further, the IC50 was 10 to 50 nM in the assay on TMD8; 500 to 1000 nM in assay [1]; 1 to 5 nM in assay [2]; 10 to 50 nM in the assay with NCI-H1975; 1 to 5 nM in assay [3]. Also, on CK1α, the “CK1a substrate protein remaining %” value was “A (0% ≤ substrate protein remaining % ≤ 80%)”. The “GSPT1 substrate protein remaining %” value on GSPT1 is listed as “A (0% ≤ substrate protein remaining % ≤ 80%)”. The “IKZF2 substrate protein remaining %” value at IKZF2 is recorded as “A (0% ≤ substrate protein remaining % ≤ 80%)”. For the same molecule, the “IKZF 1 substrate protein remaining %” value at IKZF1 is “A (0% ≤ substrate protein remaining % ≤ 80%)”. Further, at WEE1, the “Weel substrate protein remaining %” value is given as “A (0% ≤ substrate protein remaining % ≤ 80%)”.

Regarding `O=C1CCC(N2Cc3cc(CN4CCC(c5cccs5)CC4)ccc3C2=O)C(=O)N1` (centres unmarked) [GT-04571, 3-(1-oxo-5-((4-(thiophen-2-yl)piperidin-1-yl)methyl)isoindolin-2-yl)piperidine-2,6-dione], at IKZF3, the “IKZF3 substrate protein remaining %” value is “A (0% ≤ substrate protein remaining % ≤ 80%)”. The IC50 lay within 100 to 500 nM in the assay on TMD8; 1000 to 1500 nM in assay [1]; 10 to 50 nM in assay [2]; 50 to 100 nM with NCI-H1975; 5 to 10 nM in assay [3]. Also, the “CK1a substrate protein remaining %” value at CK1α was “A (0% ≤ substrate protein remaining % ≤ 80%)”. Also, the “GSPT1 substrate protein remaining %” value at GSPT1 is recorded as “A (0% ≤ substrate protein remaining % ≤ 80%)”. Further, at IKZF2, the “IKZF2 substrate protein remaining %” value was “A (0% ≤ substrate protein remaining % ≤ 80%)”. Besides, the “IKZF 1 substrate protein remaining %” value on IKZF1 was “A (0% ≤ substrate protein remaining % ≤ 80%)”. In addition, the “Weel substrate protein remaining %” value on WEE1 is “A (0% ≤ substrate protein remaining % ≤ 80%)”.

Turning to `Cc1ccc(C2=CCN(Cc3ccc4c(c3)CN(C3CCC(=O)NC3=O)C4=O)CC2)s1` (centres unmarked) [GT-04572, 3-(5-((4-(5-methylthiophen-2-yl)-3,6-dihydropyridin-1(2H)-yl)methyl)-1-oxoisoindolin-2-yl)piperidine-2,6-dione], on IKZF3, the “IKZF3 substrate protein remaining %” value is on record as “A (0% ≤ substrate protein remaining % ≤ 80%)”. For the same molecule, the IC50 lay within 10 to 50 nM in the assay with TMD8; 500 to 1000 nM in assay [1]; 10 to 50 nM in assay [2]; 10 to 50 nM with NCI-H1975; 1 to 5 nM in assay [3]. The “CK1a substrate protein remaining %” value at CK1α is given as “A (0% ≤ substrate protein remaining % ≤ 80%)”. Moreover, on GSPT1, the “GSPT1 substrate protein remaining %” value is given as “A (0% ≤ substrate protein remaining % ≤ 80%)”. The “IKZF2 substrate protein remaining %” value at IKZF2 is “A (0% ≤ substrate protein remaining % ≤ 80%)”. On IKZF1, the “IKZF 1 substrate protein remaining %” value is reported as “A (0% ≤ substrate protein remaining % ≤ 80%)”. In addition, at WEE1, the “Weel substrate protein remaining %” value is recorded as “A (0% ≤ substrate protein remaining % ≤ 80%)”.

On to `Cc1ccc(C2CCN(Cc3ccc4c(c3)CN(C3CCC(=O)NC3=O)C4=O)CC2)s1` (centres unmarked) [GT-04573, 3-(5-((4-(5-methylthiophen-2-yl)piperidin-1-yl)methyl)-1-oxoisoindolin-2-yl)piperidine-2,6-dione], for which the “IKZF3 substrate protein remaining %” value at IKZF3 is “A (0% ≤ substrate protein remaining % ≤ 80%)”. Also, the IC50 in the assay on TMD8 lay in the range of 50 to 100 nM; in assay [1] it was 1000 to 1500 nM; in assay [2] it was 10 to 50 nM; in the assay on NCI-H1975 it was 50 to 100 nM; in [3], 5 to 10 nM. On CK1α, the “CK1a substrate protein remaining %” value is listed as “A (0% ≤ substrate protein remaining % ≤ 80%)”. Further, at GSPT1, the “GSPT1 substrate protein remaining %” value is on record as “A (0% ≤ substrate protein remaining % ≤ 80%)”. For the same molecule, the “IKZF2 substrate protein remaining %” value at IKZF2 is “A (0% ≤ substrate protein remaining % ≤ 80%)”. In addition, the “IKZF 1 substrate protein remaining %” value on IKZF1 is “A (0% ≤ substrate protein remaining % ≤ 80%)”. On WEE1, the “Weel substrate protein remaining %” value was “A (0% ≤ substrate protein remaining % ≤ 80%)”.

For `O=C1CCC(N2Cc3cc(CN4CC=C(c5ccsc5)CC4)ccc3C2=O)C(=O)N1` (centres unmarked) [GT-04585, 3-(1-oxo-5-((4-(thiophen-3-yl)-3,6-dihydropyridin-1(2H)-yl)methyl)isoindolin-2-yl)piperidine-2,6-dione], the “IKZF3 substrate protein remaining %” value on IKZF3 is given as “A (0% ≤ substrate protein remaining % ≤ 80%)”. Further, the IC50 with TMD8 is 10 to 50 nM; in assay [1], less than 500 nM; in [2] it was 5 to 10 nM; in the assay on NCI-H1975 it was 10 to 50 nM; in assay [3] it was 1 to 5 nM. The “CK1a substrate protein remaining %” value at CK1α is given as “A (0% ≤ substrate protein remaining % ≤ 80%)”. The “GSPT1 substrate protein remaining %” value at GSPT1 is “A (0% ≤ substrate protein remaining % ≤ 80%)”. The “IKZF2 substrate protein remaining %” value at IKZF2 is given as “A (0% ≤ substrate protein remaining % ≤ 80%)”. For the same molecule, at IKZF1, the “IKZF 1 substrate protein remaining %” value is reported as “A (0% ≤ substrate protein remaining % ≤ 80%)”. For the same molecule, at WEE1, the “Weel substrate protein remaining %” value was “A (0% ≤ substrate protein remaining % ≤ 80%)”.

For `O=C1CCC(N2Cc3cc(CN4CCC(c5ccsc5)CC4)ccc3C2=O)C(=O)N1` (centres unmarked) [GT-04586, 3-(1-oxo-5-((4-(thiophen-3-yl)piperidin-1-yl)methyl)isoindolin-2-yl)piperidine-2,6-dione], at IKZF3, the “IKZF3 substrate protein remaining %” value is recorded as “B (80%< substrate protein remaining %≤ 100%)”. Moreover, the IC50 in the assay with TMD8 is 100 to 500 nM; in assay [1], 500 to 1000 nM; in assay [2], 10 to 50 nM; in the assay with NCI-H1975, 100 to 500 nM; in assay [3], 5 to 10 nM. The “CK1a substrate protein remaining %” value on CK1α is “B (80%< substrate protein remaining %≤ 100%)”. Further, the “GSPT1 substrate protein remaining %” value at GSPT1 was “A (0% ≤ substrate protein remaining % ≤ 80%)”. Moreover, the “IKZF2 substrate protein remaining %” value on IKZF2 is reported as “A (0% ≤ substrate protein remaining % ≤ 80%)”. Besides, at IKZF1, the “IKZF 1 substrate protein remaining %” value is on record as “B (80%< substrate protein remaining %≤ 100%)”. Also, the “Weel substrate protein remaining %” value on WEE1 was “B (80%< substrate protein remaining %≤ 100%)”.

On to `Cc1cc(C2=CCN(Cc3ccc4c(c3)CN(C3CCC(=O)NC3=O)C4=O)CC2)cs1` (centres unmarked) [GT-04587, 3-(5-((4-(5-methylthiophen-3-yl)-3,6-dihydropyridin-1(2H)-yl)methyl)-1-oxoisoindolin-2-yl)piperidine-2,6-dione], for which, on IKZF3, the “IKZF3 substrate protein remaining %” value was “A (0% ≤ substrate protein remaining % ≤ 80%)”. The IC50 with TMD8 was in the range of 10 to 50 nM; in assay [1], 500 to 1000 nM; in [2], 1 to 5 nM; in the assay with NCI-H1975 it was 5 to 10 nM; in assay [3] it was 1 to 5 nM. At CK1α, the “CK1a substrate protein remaining %” value is given as “B (80%< substrate protein remaining %≤ 100%)”. Besides, the “GSPT1 substrate protein remaining %” value on GSPT1 is recorded as “A (0% ≤ substrate protein remaining % ≤ 80%)”. The “IKZF2 substrate protein remaining %” value on IKZF2 is recorded as “A (0% ≤ substrate protein remaining % ≤ 80%)”. For the same molecule, the “IKZF 1 substrate protein remaining %” value at IKZF1 is listed as “A (0% ≤ substrate protein remaining % ≤ 80%)”. Also, the “Weel substrate protein remaining %” value at WEE1 was “A (0% ≤ substrate protein remaining % ≤ 80%)”.
